Patent publication US5416119A, “Alkylaminoalkyl-terminated sulfide/sulfonyl-containing cycloalkyl-alanine amino-diol compounds for treatment of hypertension” (G. D. Searle & Co., priority 1993, dated 1995)

Biological target: T1, Human Renin (Homo sapiens, UniProt P00797)
T1 construct: purchased National Institute for Biological Standards, London
T1 sequence (P00797 67-406): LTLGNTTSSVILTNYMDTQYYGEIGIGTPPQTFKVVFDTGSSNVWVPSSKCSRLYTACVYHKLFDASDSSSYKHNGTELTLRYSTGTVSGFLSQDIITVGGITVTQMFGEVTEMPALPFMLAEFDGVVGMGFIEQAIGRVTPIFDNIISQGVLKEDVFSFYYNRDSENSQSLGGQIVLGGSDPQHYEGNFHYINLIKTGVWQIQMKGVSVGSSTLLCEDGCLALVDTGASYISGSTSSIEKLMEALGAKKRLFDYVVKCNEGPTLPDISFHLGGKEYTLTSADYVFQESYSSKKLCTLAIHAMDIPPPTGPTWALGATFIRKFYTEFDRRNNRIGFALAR
Test: Human renin inhibition in vitro (angiotensin I produced, determined by radioimmunoassay)
Type: biochemical
Details: human plasma, pH 7.4, 37° C., two hours
Method: Compounds of Formula I were evaluated as inhibitors of human renin in an in vitro assay, as follows: This human renin inhibition test has been previously described in detail [Papaioannou et al., Clinical and Experimental Hypertension, A7(9), 1243-1257 (1985)]. Human renin was obtained from the National Institute for Biological Standards, London. An incubation mixture was prepared containing the following components: in a total volume of 0.25 mL: 100 mM Tris-acetate buffer at pH 7.4, 25×10^-6 Goldblatt units of renin, 0.05 mL of plasma from human volunteers taking oral contraceptives, 6.0 mM Na-EDTA, 2.4 mM phenylmethyl sulfonyl fluoride, 1.5 mM 8-hydroxyquinoline, 0.4 mg/mL bovine serum albumin (BSA), and 0.024 mg/mL neomycin sulfate. This mixture was incubated for two hours at 37° C. in the presence or absence of renin inhibitors. The produced angiotensin I was determined by radioimmunoassay (New England Nuclear kit). Test compounds to be assayed were dissolved in DMSO and diluted with 100 mM Tris-acetate buffer at pH 7.4 containing 0.5% BSA to the appropriate concentration. The final concentration of organic solvent in the reaction mixture was less than 1%. Control incubations at 37° C. were used to correct for effects of organic solvent on renin activity.

IC50: 1.3 nM
SMILES: CC(C)C[C@H](O)[C@H](O)[C@H](CC1CCCCC1)NC(=O)C(CC1CC1)NC(=O)C(Cc1ccccc1)CS(=O)(=O)CCN(C)C (stereo partly drawn) [Example 1, N-[2-[[1S,1R*-(cyclohexylmethyl)-2S*,3R* -dihydroxy-5-methylhexyl]amino]-1R*-(cyclopropylmethyl)-2-oxoethyl]-α-[[[2-(dimethylamino)ethyl]sulfonyl]methyl]benzenepropanamide]
